Each block holds one compound with its values, some of them ahead of it.
How the values were obtained:
[1] = biological target: GDP-bound NRAS wild-type protein (Homo sapiens, UniProt P01111); assay: Binding to NRAS by surface plasmon resonance (SPR), KD and KD ratio to KRAS; details: ratio of the KD value with respect to GDP-bound NRAS wild-type protein to the KD value with respect to KRAS
How it was run: (§1)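 GDP-bound biotin-Avi RAS captured at ~100–300 RU, 30°C, pH 7.4 HBS containing 10 µM GDP, 10 mM MgCl2, 1 mM DTT, 0.01% Tween 20 and 4% DMSO. KD by 1:1 fitting.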

HRAS wild-type protein = HRAS wild-type protein (Homo sapiens, UniProt P01112); assay: Binding to HRAS by surface plasmon resonance (SPR), KD and KD ratio to KRAS; details: ratio of the KD value with respect to HRAS wild-type protein to the KD value with respect to KRAS
How it was run: as §1

[2] = tested on: human lung cancer strain NCI-H441; assay type: cell-based
How it was run: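 Readout: […] after the ATP-based reagent. Compound: serial dilutions in dimethyl sulfoxide.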

GDP-bound NRAS wild-type protein, sequence (P01111 whole entry): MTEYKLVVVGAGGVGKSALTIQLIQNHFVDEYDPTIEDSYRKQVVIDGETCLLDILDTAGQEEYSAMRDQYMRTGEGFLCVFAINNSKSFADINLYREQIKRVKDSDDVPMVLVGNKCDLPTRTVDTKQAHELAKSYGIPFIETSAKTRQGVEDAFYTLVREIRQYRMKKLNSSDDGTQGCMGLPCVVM
HRAS wild-type protein, sequence (P01112 whole entry): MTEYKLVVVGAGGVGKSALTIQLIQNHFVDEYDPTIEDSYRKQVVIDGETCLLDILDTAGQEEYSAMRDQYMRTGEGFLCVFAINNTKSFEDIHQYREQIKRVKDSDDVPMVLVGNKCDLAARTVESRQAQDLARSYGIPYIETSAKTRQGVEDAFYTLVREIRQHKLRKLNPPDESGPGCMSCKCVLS

Structure (SMILES): CCCOC[C@H]1C(=O)N[C@@H]([C@@H](C)CC)C(=O)N(C)CC(=O)N(C)[C@H]2C/C=C\CCN(C2=O)[C@@H](Cc2ccc(C(F)(F)F)cc2)C(=O)N(C)CC(=O)N[C@@H](CCc2ccc(C(F)(F)F)c(OC)c2)C(=O)N2C[C@H](OCC)C[C@H]2C(=O)NC2(CC(C)(C)C2)C(=O)N(C)[C@@H](C2CCCC2)C(=O)N(C)[C@H](C(=O)N(C)CC)CC(=O)N1C [PP1973]
NRAS /KRAS [1]: A (a compound having 10 or more and less than 20 is denoted as A)
HRAS /KRAS (HRAS wild-type protein): B (a compound having 3 or more and less than 10 is denoted as B)
IC50 [2]: 8.7 nM

Structure (SMILES): CCCN(C)C(=O)[C@@H]1CC(=O)N(C)[C@@H](CCOC)C(=O)N[C@@H]([C@@H](C)CC)C(=O)N(C)CC(=O)N(C)[C@H]2C/C=C\CCN(C2=O)[C@@H](Cc2ccc(C(F)(F)F)cc2)C(=O)N(C)CC(=O)N[C@@H](CCc2cc(F)c(C(F)(F)F)c(F)c2)C(=O)N2C[C@@H](C)C[C@H]2C(=O)NC2(CC(C)(C)C2)C(=O)N(C)[C@@H](C2CCCC2)C(=O)N1C [PP1974]
NRAS /KRAS [1]: A (a compound having 10 or more and less than 20 is denoted as A)
HRAS /KRAS (HRAS wild-type protein): A (a compound having 10 or more and less than 20 is denoted as A)
IC50 [2]: 50 nM

Structure (SMILES): CC[C@H](C)[C@@H]1NC(=O)[C@H](C(C)C)N(C)C(=O)C[C@@H](C(=O)N(C)CC)N(C)C(=O)[C@H](C2CCCC2)N(C)C(=O)C2(CC(C)(C)C2)NC(=O)[C@@H]2C[C@H](C)CN2C(=O)[C@H](CCc2cc(F)c(C(F)(F)F)c(F)c2)NC(=O)CN(C)C(=O)[C@H](Cc2ccc(C(F)(F)F)cc2)N2CC/C=C\C[C@@H](C2=O)N(C)C(=O)CN(C)C1=O [PP1976]
NRAS /KRAS [1]: AA (a compound having 20 or more is denoted as AA)
HRAS /KRAS (HRAS wild-type protein): A (a compound having 10 or more and less than 20 is denoted as A)
IC50 [2]: 92 nM

Structure (SMILES): CCO[C@@H]1C[C@H]2C(=O)NC3(CC(C)(C)C3)C(=O)N(C)[C@@H](C3CCCC3)C(=O)N(C)[C@H](C(=O)N(C)C)CC(=O)N(C)[C@@H](C(C)C)C(=O)N[C@@H]([C@@H](C)CC)C(=O)N(C)CC(=O)N(C)[C@H]3C/C=C\CCN(C3=O)[C@@H](Cc3ccc(C(F)(F)F)cc3)C(=O)N(C)CC(=O)N[C@@H](CCc3ccc(C(F)(F)F)c(OC)c3)C(=O)N2C1 [PP1979]
NRAS /KRAS [1]: AA (a compound having 20 or more is denoted as AA)
HRAS /KRAS (HRAS wild-type protein): A (a compound having 10 or more and less than 20 is denoted as A)
IC50 [2]: 12.5 nM

Structure (SMILES): CC[C@H](C)[C@@H]1NC(=O)[C@H](C2CCC2)N(C)C(=O)C[C@@H](C(=O)N(C)CC)N(C)C(=O)[C@H](C2CCCC2)N(C)C(=O)C2(CC(C)(C)C2)NC(=O)[C@@H]2C[C@H](C)CN2C(=O)[C@H](CCc2cc(F)c(C(F)(F)F)c(F)c2)NC(=O)CN(C)C(=O)[C@H](Cc2ccc(C(F)(F)F)cc2)N2CC/C=C\C[C@@H](C2=O)N(C)C(=O)CN(C)C1=O [PP1984]
NRAS /KRAS [1]: A (a compound having 10 or more and less than 20 is denoted as A)
HRAS /KRAS (HRAS wild-type protein): A (a compound having 10 or more and less than 20 is denoted as A)
IC50 [2]: 50.8 nM

Structure (SMILES): CCCN(C)C(=O)[C@@H]1CC(=O)N(C)[C@@H](COCC)C(=O)N[C@@H]([C@@H](C)CC)C(=O)N(C)CC(=O)N(C)[C@H]2C/C=C\CCN(C2=O)[C@@H](Cc2ccc(C(F)(F)F)cc2)C(=O)N(C)CC(=O)N[C@@H](CCc2cc(F)c(C(F)(F)F)c(F)c2)C(=O)N2C[C@H](OCC)C[C@H]2C(=O)NC2(CCC2)C(=O)N(C)[C@@H](C2CCCC2)C(=O)N1C [PP1988]
NRAS /KRAS [1]: A (a compound having 10 or more and less than 20 is denoted as A)
HRAS /KRAS (HRAS wild-type protein): A (a compound having 10 or more and less than 20 is denoted as A)
IC50 [2]: 11 nM

Structure (SMILES): CCCN(C)C(=O)[C@@H]1CC(=O)N(C)[C@@H](CC(F)F)C(=O)N[C@@H]([C@@H](C)CC)C(=O)N(C)CC(=O)N(C)[C@H]2C/C=C\CCN(C2=O)[C@@H](Cc2ccc(C(F)(F)F)cc2)C(=O)N(C)CC(=O)N[C@@H](CCc2ccc(C(F)(F)F)c(OC)c2)C(=O)N2C[C@@H](C)C[C@H]2C(=O)NC2(CC(C)(C)C2)C(=O)N(C)[C@@H](C2CCCC2)C(=O)N1C [PP1989]
NRAS /KRAS [1]: A (a compound having 10 or more and less than 20 is denoted as A)
HRAS /KRAS (HRAS wild-type protein): A (a compound having 10 or more and less than 20 is denoted as A)
IC50 [2]: 11.1 nM

Second part, led by results:

IC50 [2]: 13.4 nM
Structure (SMILES): CCCN(C)C(=O)[C@@H]1CC(=O)N(C)[C@@H](CCOC)C(=O)N[C@@H]([C@@H](C)CC)C(=O)N(C)CC(=O)N(C)[C@H]2C/C=C\CCN(C2=O)[C@@H](Cc2ccc(C(F)(F)F)cc2)C(=O)N(C)CC(=O)N[C@@H](CCc2ccc(C(F)(F)F)c(OC)c2)C(=O)N2C[C@H](OCC)C[C@H]2C(=O)NC2(CC(C)(C)C2)C(=O)N(C)[C@@H](C2CCCC2)C(=O)N1C [PP1975]
NRAS /KRAS [1]: A (a compound having 10 or more and less than 20 is denoted as A)
HRAS /KRAS (HRAS wild-type protein): A (a compound having 10 or more and less than 20 is denoted as A)

IC50 [2]: 20.2 nM
Structure (SMILES): CCO[C@@H]1C[C@H]2C(=O)NC3(CC(C)(C)C3)C(=O)N(C)[C@@H](C3CCCC3)C(=O)N(C)[C@H](C(=O)N(C)CC)CC(=O)N(C)[C@@H](C(C)C)C(=O)N[C@@H]([C@@H](C)CC)C(=O)N(C)CC(=O)N(C)[C@H]3C/C=C\CCN(C3=O)[C@@H](Cc3ccc(C(F)(F)F)cc3)C(=O)N(C)CC(=O)N[C@@H](CCc3ccc(C(F)(F)F)c(OC)c3)C(=O)N2C1 [PP1977]
NRAS /KRAS [1]: AA (a compound having 20 or more is denoted as AA)
HRAS /KRAS (HRAS wild-type protein): A (a compound having 10 or more and less than 20 is denoted as A)

IC50 [2]: 20.7 nM
Structure (SMILES): CCO[C@@H]1C[C@H]2C(=O)NC3(CC(C)(C)C3)C(=O)N(C)[C@@H](C3CCCC3)C(=O)N(C)[C@H](C(=O)N(C)CC)CC(=O)N(C)[C@@H](C3CC3)C(=O)N[C@@H]([C@@H](C)CC)C(=O)N(C)CC(=O)N(C)[C@H]3C/C=C\CCN(C3=O)[C@@H](Cc3ccc(C(F)(F)F)cc3)C(=O)N(C)CC(=O)N[C@@H](CCc3ccc(C(F)(F)F)c(OC)c3)C(=O)N2C1 [PP1981]
NRAS /KRAS [1]: A (a compound having 10 or more and less than 20 is denoted as A)
HRAS /KRAS (HRAS wild-type protein): A (a compound having 10 or more and less than 20 is denoted as A)

IC50 [2]: 20.2 nM
Structure (SMILES): CCCN(C)C(=O)[C@@H]1CC(=O)N(C)[C@@H](C2CC2)C(=O)N[C@@H]([C@@H](C)CC)C(=O)N(C)CC(=O)N(C)[C@H]2C/C=C\CCN(C2=O)[C@@H](Cc2ccc(C(F)(F)F)cc2)C(=O)N(C)CC(=O)N[C@@H](CCc2ccc(C(F)(F)F)c(OC)c2)C(=O)N2C[C@H](OCC)C[C@H]2C(=O)NC2(CC(C)(C)C2)C(=O)N(C)[C@@H](C2CCCC2)C(=O)N1C [PP1983]
NRAS /KRAS [1]: AA (a compound having 20 or more is denoted as AA)
HRAS /KRAS (HRAS wild-type protein): A (a compound having 10 or more and less than 20 is denoted as A)

IC50 [2]: 6.6 nM
Structure (SMILES): CCO[C@@H]1C[C@H]2C(=O)NC3(CC(C)(C)C3)C(=O)N(C)[C@@H](C3CCCC3)C(=O)N(C)[C@H](C(=O)N(C)C)CC(=O)N(C)[C@@H](C3CCC3)C(=O)N[C@@H]([C@@H](C)CC)C(=O)N(C)CC(=O)N(C)[C@H]3C/C=C\CCN(C3=O)[C@@H](Cc3ccc(C(F)(F)F)cc3)C(=O)N(C)CC(=O)N[C@@H](CCc3ccc(C(F)(F)F)c(OC)c3)C(=O)N2C1 [PP1987]
NRAS /KRAS [1]: A (a compound having 10 or more and less than 20 is denoted as A)
HRAS /KRAS (HRAS wild-type protein): A (a compound having 10 or more and less than 20 is denoted as A)

— EP4603105A1, “PHARMACEUTICAL COMPOSITION CONTAINING CYCLIC COMPOUND HAVING SELECTIVE KRAS INHIBITORY EFFECT AGAINST HRAS AND NRAS” (CHUGAI SEIYAKU KABUSHIKI KAISHA, priority 2022, dated 2024)
